Source: US20190152946A1, “Novel Compounds” (GlaxoSmithKline Intellectual Property Development Limited, priority 2016, published 2019)

How the values were obtained:
Type in all cases: cell-based
PTK2 = target: T1, PTK2 (Homo sapiens, UniProt Q05397); assay: Expression proteomics in THP-1 cells, PTK2 level; settings: PTK2 protein log2 fold change, 24 h, 1.0 μM
T1 construct: endogenous in cells; host or cells: THP-1
Experimental: (§1) THP-1 cells were seeded at a concentration of 3×10^6 cells in T175 flasks with 60 mL growth medium (RPM11640+10% FBS). […] of a 10× compound solution prepared in growth medium (DMSO), IAP PROTAC) was added and the cells were treated for the indicated time points (6 or 24 h) at 37° C., 5% CO2. For harvesting the cells were collected into falcon tubes on ice, centrifuged and washed twice in cold PBS (Life technologies). After the last washing step the supernatant was removed and the pellets were snap-frozen in liquid N2 and stored at −80° C. and lysed in 2% SDS for 3 min at 95° C. in a thermomixer (Thermo Fisher Scientific), followed by digestion of DNA with Benzonase at 37° C. for 1.5 h. Lysate was cleared by centrifugation an protein concentration in supernatant was determined by BCA assay.
(§2) Leukemia 25, 89-100 (2011).
(§3) Samples were dried in vacuo and resuspended in 0.05% trifluoroacetic acid in water. […]
(§4) Reporter ion intensities were read from raw data and multiplied with ion accumulation times (the unit is milliseconds) so as to yield a measure proportional to the number of ions;
(§5) Nat Biotech 29, 255-265 (2011). this measure is referred to as ion area Savitski, M. M. et al. Delayed Fragmentation and Optimized Isolation Width Settings for Improvement of Protein Identification and Accuracy of Isobaric Mass Tag Quantification on Orbitrap-Type Mass Spectrometers. […]

MAPK9 = target: T2, MAPK9 (Homo sapiens, UniProt P45984); assay: Expression proteomics in THP-1 cells, MAPK9 level; settings: MAPK9 protein log2 fold change, 24 h, 1.0 μM
T2 construct: endogenous in cells; host or cells: THP-1
Experimental: as §1, §2, §3, §4, §5

IRAK3 = target: T3, IRAK3 (Homo sapiens, UniProt Q9Y616); assay: Expression proteomics in THP-1 cells, IRAK3 level; settings: IRAK3 protein log2 fold change, 24 h, 1.0 μM
T3 construct: endogenous in cells; host or cells: THP-1
T3 sequence (Q9Y616 1-596): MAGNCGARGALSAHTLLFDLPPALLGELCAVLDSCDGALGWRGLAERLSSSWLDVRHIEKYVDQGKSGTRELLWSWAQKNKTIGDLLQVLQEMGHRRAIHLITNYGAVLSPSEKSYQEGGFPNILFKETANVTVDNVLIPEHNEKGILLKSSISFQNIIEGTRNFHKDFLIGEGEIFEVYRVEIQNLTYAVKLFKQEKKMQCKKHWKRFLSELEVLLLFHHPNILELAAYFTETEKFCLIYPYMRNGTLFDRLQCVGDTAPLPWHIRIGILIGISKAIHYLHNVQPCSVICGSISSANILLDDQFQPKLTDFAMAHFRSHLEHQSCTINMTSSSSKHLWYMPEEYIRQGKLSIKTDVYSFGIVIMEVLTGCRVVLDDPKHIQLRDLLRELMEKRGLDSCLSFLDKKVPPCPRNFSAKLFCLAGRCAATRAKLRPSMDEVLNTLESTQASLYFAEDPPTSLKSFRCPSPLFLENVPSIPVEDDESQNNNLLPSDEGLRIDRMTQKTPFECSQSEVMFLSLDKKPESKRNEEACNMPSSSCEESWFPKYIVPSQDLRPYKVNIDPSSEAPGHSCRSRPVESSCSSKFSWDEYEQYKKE
Experimental: as §1, §2, §3, §4, §5

BTK = target: T4, BTK (Homo sapiens, UniProt Q06187); assay: Expression proteomics in THP-1 cells, BTK level; settings: BTK protein log2 fold change, 24 h, 1.0 μM
T4 construct: endogenous in cells; host or cells: THP-1
Experimental: as §1, §2, §3, §4, §5

T4 sequence (Q06187 whole entry): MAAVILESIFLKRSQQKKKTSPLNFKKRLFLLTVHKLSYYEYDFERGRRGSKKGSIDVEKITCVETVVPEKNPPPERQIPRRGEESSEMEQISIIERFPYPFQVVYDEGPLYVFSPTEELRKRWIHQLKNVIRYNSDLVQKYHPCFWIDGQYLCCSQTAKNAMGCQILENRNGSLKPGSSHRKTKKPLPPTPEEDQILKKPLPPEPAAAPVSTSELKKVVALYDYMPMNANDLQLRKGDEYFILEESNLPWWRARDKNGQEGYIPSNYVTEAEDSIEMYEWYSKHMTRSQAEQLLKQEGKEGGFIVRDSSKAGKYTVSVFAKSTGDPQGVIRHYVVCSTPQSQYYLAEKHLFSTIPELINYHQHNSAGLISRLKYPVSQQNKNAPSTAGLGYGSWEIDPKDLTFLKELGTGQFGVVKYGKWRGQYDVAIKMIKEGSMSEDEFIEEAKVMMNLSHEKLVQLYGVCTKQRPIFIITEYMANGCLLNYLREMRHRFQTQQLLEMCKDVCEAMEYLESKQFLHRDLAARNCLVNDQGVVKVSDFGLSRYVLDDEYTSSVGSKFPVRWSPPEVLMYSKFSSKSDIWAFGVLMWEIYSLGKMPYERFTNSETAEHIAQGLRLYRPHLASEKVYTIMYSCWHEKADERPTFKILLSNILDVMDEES
T2 sequence (P45984 whole entry): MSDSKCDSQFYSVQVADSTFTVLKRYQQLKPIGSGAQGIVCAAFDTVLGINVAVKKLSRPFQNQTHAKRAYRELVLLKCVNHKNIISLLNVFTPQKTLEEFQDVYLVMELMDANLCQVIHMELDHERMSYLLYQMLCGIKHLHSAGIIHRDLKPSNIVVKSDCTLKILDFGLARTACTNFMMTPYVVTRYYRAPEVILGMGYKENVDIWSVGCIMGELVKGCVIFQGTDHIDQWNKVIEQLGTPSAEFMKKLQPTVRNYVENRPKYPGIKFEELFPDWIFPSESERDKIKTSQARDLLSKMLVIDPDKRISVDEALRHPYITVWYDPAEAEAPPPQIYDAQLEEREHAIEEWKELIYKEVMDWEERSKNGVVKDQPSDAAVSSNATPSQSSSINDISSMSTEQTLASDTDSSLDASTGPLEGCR
T1 sequence (Q05397 whole entry): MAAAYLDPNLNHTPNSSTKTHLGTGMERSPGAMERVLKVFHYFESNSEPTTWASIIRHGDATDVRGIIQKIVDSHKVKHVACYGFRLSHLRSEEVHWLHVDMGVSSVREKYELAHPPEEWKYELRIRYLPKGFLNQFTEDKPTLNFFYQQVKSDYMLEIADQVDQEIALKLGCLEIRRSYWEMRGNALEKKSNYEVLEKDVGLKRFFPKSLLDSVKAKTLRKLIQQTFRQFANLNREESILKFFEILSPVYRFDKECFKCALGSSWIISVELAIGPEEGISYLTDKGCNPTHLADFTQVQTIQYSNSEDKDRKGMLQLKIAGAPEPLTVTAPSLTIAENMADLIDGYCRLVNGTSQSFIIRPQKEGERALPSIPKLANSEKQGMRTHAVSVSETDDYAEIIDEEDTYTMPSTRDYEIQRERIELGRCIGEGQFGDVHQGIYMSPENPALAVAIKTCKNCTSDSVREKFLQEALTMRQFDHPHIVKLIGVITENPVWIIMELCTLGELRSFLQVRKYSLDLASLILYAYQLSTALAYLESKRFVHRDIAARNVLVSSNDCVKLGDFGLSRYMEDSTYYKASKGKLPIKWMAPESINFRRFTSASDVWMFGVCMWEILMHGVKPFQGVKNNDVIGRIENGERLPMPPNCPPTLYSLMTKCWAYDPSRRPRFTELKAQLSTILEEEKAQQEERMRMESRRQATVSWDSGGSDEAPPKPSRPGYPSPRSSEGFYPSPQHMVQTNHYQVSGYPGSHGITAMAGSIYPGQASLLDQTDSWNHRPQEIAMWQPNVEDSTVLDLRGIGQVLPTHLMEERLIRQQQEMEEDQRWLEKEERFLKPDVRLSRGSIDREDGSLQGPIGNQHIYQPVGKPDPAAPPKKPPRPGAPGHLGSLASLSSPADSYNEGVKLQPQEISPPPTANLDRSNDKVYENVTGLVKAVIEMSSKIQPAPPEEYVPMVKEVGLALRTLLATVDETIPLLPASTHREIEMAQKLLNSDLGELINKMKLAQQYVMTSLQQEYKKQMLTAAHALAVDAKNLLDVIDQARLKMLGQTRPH

log2fc_IAP_24 h_1.0 μM_n1 (PTK2; replicate n1): −0.90 | log2fc_IAP_24 h_1.0 μM_n2 (PTK2; replicate n2): −1.00 | log2fc_IAP_24 h_1.0 μM_n1 (MAPK9; replicate n1): −1.22 | log2fc_IAP_24 h_1.0 μM_n2 (MAPK9; replicate n2): −1.31 | log2fc_IAP_24 h_1.0 μM_n1 (IRAK3; replicate n1): −2.28 | log2fc_IAP_24 h_1.0 μM_n2 (IRAK3; replicate n2): −2.47 | log2fc_IAP_24 h_1.0 μM_n1 (BTK; replicate n1): −1.53 | log2fc_IAP_24 h_1.0 μM_n2 (BTK; replicate n2): −1.66
SMILES: CNC(=O)c1ccccc1Nc1nc(Nc2ccc(N3CCN(CCOCCOCCOCCOc4ccc5c(c4)CN(C(=O)[C@@H](NC(=O)[C@H](C)NC)C(C)(C)C)[C@H](C(=O)N[C@@H]4CCCc6ccccc64)C5)CC3)cc2)ncc1Cl [IAP, (S)-7-(2-(2-(2-(2-(4-(4-((5-Chloro-4-((2-(methylcarbamoyl)phenyl)amino)pyrimidin-2-yl)amino)phenyl)piperazin-1-yl)ethoxy)ethoxy)ethoxy)ethoxy)-2-((S)-3,3-dimethyl-2-((S)-2-(methylamino)propanamido)butanoyl)-N-((R)-1,2,3,4-tetrahydronaphthalen-1-yl)-1,2,3,4-tetrahydroisoquinoline-3-carboxamide]
